Biological target: T1, bacteriophage T4 DNA polymerase (Enterobacteria phage T4, UniProt P04415)
T1 construct: made in house
T1 sequence (P04415 1-898): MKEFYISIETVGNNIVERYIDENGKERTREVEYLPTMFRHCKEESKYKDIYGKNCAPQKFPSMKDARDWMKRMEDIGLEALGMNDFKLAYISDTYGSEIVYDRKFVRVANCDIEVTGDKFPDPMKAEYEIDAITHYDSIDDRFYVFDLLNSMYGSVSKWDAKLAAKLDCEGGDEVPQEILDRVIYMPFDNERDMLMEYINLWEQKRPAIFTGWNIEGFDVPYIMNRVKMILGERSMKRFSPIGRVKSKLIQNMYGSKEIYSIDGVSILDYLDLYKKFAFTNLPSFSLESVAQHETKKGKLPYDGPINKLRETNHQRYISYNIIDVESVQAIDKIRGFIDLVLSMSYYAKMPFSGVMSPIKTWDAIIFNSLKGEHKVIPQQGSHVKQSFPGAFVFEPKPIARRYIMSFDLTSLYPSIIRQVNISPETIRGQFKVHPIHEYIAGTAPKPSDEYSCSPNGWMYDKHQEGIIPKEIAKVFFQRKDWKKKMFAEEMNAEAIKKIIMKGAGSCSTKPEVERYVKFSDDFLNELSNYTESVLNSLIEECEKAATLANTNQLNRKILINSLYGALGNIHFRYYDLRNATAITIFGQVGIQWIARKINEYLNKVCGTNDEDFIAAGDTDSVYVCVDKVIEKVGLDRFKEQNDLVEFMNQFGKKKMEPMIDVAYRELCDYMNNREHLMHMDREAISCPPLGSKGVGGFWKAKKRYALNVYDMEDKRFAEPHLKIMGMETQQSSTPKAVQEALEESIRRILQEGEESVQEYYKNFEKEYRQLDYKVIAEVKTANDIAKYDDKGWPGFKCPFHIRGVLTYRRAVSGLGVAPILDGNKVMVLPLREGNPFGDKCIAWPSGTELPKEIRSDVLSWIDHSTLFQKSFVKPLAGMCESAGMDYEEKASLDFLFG
Assay: Counter-screen against bacteriophage T4 DNA polymerase
Format: biochemical
Conditions: for % inhibition T4 10' 2.5 / % inhibition T4 10' 5 / % inhibition T4 10' 10 / % inhibition T4 10' 20 / % inhibition T4 10' 40 / % inhibition T4 10' 80: read at 10'; for % inhibition T4 10' 2.5 / % inhibition T4 70' 2.5 / % inhibition T4 130' 2.5 / % inhibition T4 40' 2.5 / % inhibition T4 90' 2.5 / % inhibition T4 180' 2.5: concentration 2.5; for % inhibition T4 10' 5 / % inhibition T4 70' 5 / % inhibition T4 130' 5 / % inhibition T4 40' 5 / % inhibition T4 90' 5 / % inhibition T4 180' 5: concentration 5; for % inhibition T4 10' 10 / % inhibition T4 70' 10 / % inhibition T4 130' 10 / % inhibition T4 40' 10 / % inhibition T4 90' 10 / % inhibition T4 180' 10: concentration 10; for % inhibition T4 10' 20 / % inhibition T4 70' 20 / % inhibition T4 130' 20 / % inhibition T4 40' 20 / % inhibition T4 90' 20 / % inhibition T4 180' 20: concentration 20; for % inhibition T4 10' 40 / % inhibition T4 70' 40 / % inhibition T4 130' 40 / % inhibition T4 40' 40 / % inhibition T4 90' 40 / % inhibition T4 180' 40: concentration 40; for % inhibition T4 10' 80 / % inhibition T4 70' 80 / % inhibition T4 130' 80 / % inhibition T4 40' 80 / % inhibition T4 90' 80 / % inhibition T4 180' 80: concentration 80; for % inhibition T4 70' 2.5 / % inhibition T4 70' 5 / % inhibition T4 70' 10 / % inhibition T4 70' 20 / % inhibition T4 70' 40 / % inhibition T4 70' 80: read at 70'; for % inhibition T4 130' 2.5 / % inhibition T4 130' 5 / % inhibition T4 130' 10 / % inhibition T4 130' 20 / % inhibition T4 130' 40 / % inhibition T4 130' 80: read at 130'; for % inhibition T4 40' 2.5 / % inhibition T4 40' 5 / % inhibition T4 40' 10 / % inhibition T4 40' 20 / % inhibition T4 40' 40 / % inhibition T4 40' 80: read at 40'; for % inhibition T4 90' 2.5 / % inhibition T4 90' 5 / % inhibition T4 90' 10 / % inhibition T4 90' 20 / % inhibition T4 90' 40 / % inhibition T4 90' 80: read at 90'; for % inhibition T4 180' 2.5 / % inhibition T4 180' 5 / % inhibition T4 180' 10 / % inhibition T4 180' 20 / % inhibition T4 180' 40 / % inhibition T4 180' 80: read at 180'
Procedure, shortened: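 Purified T4 DNA polymerase, a B-family enzyme, served as the counter-screen enzyme. Compounds were tested in dose-response format and IC50 values were derived.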

Cc1cc2[nH]c(C(=O)Nc3ccc(F)cc3)c(CN3CCOCC3)c2s1 [Molecule 60, Fc1ccc(cc1)NC(=O)c1[nH]c2c(c1CN1CCOCC1)sc(c2)C]
% inhibition T4 10' 2.5 (DRC-1): 1.711%
% inhibition T4 10' 5 (DRC-1): 9.215%
% inhibition T4 10' 10 (DRC-1): 21.452%
% inhibition T4 10' 20 (DRC-1): 34.4714%
% inhibition T4 10' 40 (DRC-1): 38.1099%
% inhibition T4 10' 80 (DRC-1): 40.6852%
% inhibition T4 70' 2.5 (DRC-1): 0.0854%
% inhibition T4 70' 5 (DRC-1): 3.336%
% inhibition T4 70' 10 (DRC-1): 13.8719%
% inhibition T4 70' 20 (DRC-1): 20.2889%
% inhibition T4 70' 40 (DRC-1): 27.4388%
% inhibition T4 70' 80 (DRC-1): 27.0179%
% inhibition T4 130' 2.5 (DRC-1): -1.799%
% inhibition T4 130' 5 (DRC-1): 0.5371%
% inhibition T4 130' 10 (DRC-1): 9.245%
% inhibition T4 130' 20 (DRC-1): 15.4607%
% inhibition T4 130' 40 (DRC-1): 21.1797%
% inhibition T4 130' 80 (DRC-1): 22.3923%
% inhibition T4 10' 2.5 (DRC-2): 5.28%
% inhibition T4 10' 5 (DRC-2): 2.77%
% inhibition T4 10' 10 (DRC-2): 13%
% inhibition T4 10' 20 (DRC-2): 21%
% inhibition T4 10' 40 (DRC-2): 25%
% inhibition T4 10' 80 (DRC-2): 25%
% inhibition T4 40' 2.5 (DRC-2): 3.64%
% inhibition T4 40' 5 (DRC-2): 2.11%
% inhibition T4 40' 10 (DRC-2): 12%
% inhibition T4 40' 20 (DRC-2): 21%
% inhibition T4 40' 40 (DRC-2): 26%
% inhibition T4 40' 80 (DRC-2): 27%
% inhibition T4 90' 2.5 (DRC-2): 4%
% inhibition T4 90' 5 (DRC-2): 2.34%
% inhibition T4 90' 10 (DRC-2): 12%
% inhibition T4 90' 20 (DRC-2): 19%
% inhibition T4 90' 40 (DRC-2): 24%
% inhibition T4 90' 80 (DRC-2): 25%
% inhibition T4 180' 2.5 (DRC-2): -1.07%
% inhibition T4 180' 5 (DRC-2): -2.8%
% inhibition T4 180' 10 (DRC-2): 6%
% inhibition T4 180' 20 (DRC-2): 13%
% inhibition T4 180' 40 (DRC-2): 20%
% inhibition T4 180' 80 (DRC-2): 23%

Cn1nc(-c2nc(-c3ccccc3)no2)c2c1CCN(C(=O)Cc1cccs1)C2 [Molecule 58, O=C(N1CCc2c(C1)c(nn2C)c1onc(n1)c1ccccc1)Cc1cccs1]
% inhibition T4 10' 2.5 (DRC-1): 2%
% inhibition T4 10' 5 (DRC-1): 6%
% inhibition T4 10' 10 (DRC-1): 20%
% inhibition T4 10' 20 (DRC-1): 24%
% inhibition T4 10' 40 (DRC-1): 35%
% inhibition T4 10' 80 (DRC-1): 33%
% inhibition T4 70' 2.5 (DRC-1): -0.863%
% inhibition T4 70' 5 (DRC-1): 0.684%
% inhibition T4 70' 10 (DRC-1): 13%
% inhibition T4 70' 20 (DRC-1): 17%
% inhibition T4 70' 40 (DRC-1): 26%
% inhibition T4 70' 80 (DRC-1): 37%
% inhibition T4 130' 2.5 (DRC-1): -2.41%
% inhibition T4 130' 5 (DRC-1): -0.486%
% inhibition T4 130' 10 (DRC-1): 9%
% inhibition T4 130' 20 (DRC-1): 14%
% inhibition T4 130' 40 (DRC-1): 24%
% inhibition T4 130' 80 (DRC-1): 33%
% inhibition T4 10' 2.5 (DRC-2): 2.64%
% inhibition T4 10' 5 (DRC-2): 8%
% inhibition T4 10' 10 (DRC-2): 17%
% inhibition T4 10' 20 (DRC-2): 20%
% inhibition T4 10' 40 (DRC-2): 23%
% inhibition T4 10' 80 (DRC-2): 20%
% inhibition T4 40' 2.5 (DRC-2): 2.18%
% inhibition T4 40' 5 (DRC-2): 6.41%
% inhibition T4 40' 10 (DRC-2): 17%
% inhibition T4 40' 20 (DRC-2): 22%
% inhibition T4 40' 40 (DRC-2): 27%
% inhibition T4 40' 80 (DRC-2): 25%
% inhibition T4 90' 2.5 (DRC-2): 2.76%
% inhibition T4 90' 5 (DRC-2): 7%
% inhibition T4 90' 10 (DRC-2): 17%
% inhibition T4 90' 20 (DRC-2): 21%
% inhibition T4 90' 40 (DRC-2): 24%
% inhibition T4 90' 80 (DRC-2): 22%
% inhibition T4 180' 2.5 (DRC-2): -1.52%
% inhibition T4 180' 5 (DRC-2): 1.9%
% inhibition T4 180' 10 (DRC-2): 13%
% inhibition T4 180' 20 (DRC-2): 15%
% inhibition T4 180' 40 (DRC-2): 20%
% inhibition T4 180' 80 (DRC-2): 20%

Cn1nc(-c2nnc(-c3ccccc3F)o2)c2c1CCN(C(=O)c1ccccc1Cl)C2 [Molecule 34, Cn1nc(c2c1CCN(C2)C(=O)c1ccccc1Cl)c1nnc(o1)c1ccccc1F]
% inhibition T4 10' 2.5 (DRC-1): -0.603%
% inhibition T4 10' 5 (DRC-1): -0.853%
% inhibition T4 10' 10 (DRC-1): 3%
% inhibition T4 10' 20 (DRC-1): 1.06%
% inhibition T4 10' 40 (DRC-1): 1.22%
% inhibition T4 10' 80 (DRC-1): 31%
% inhibition T4 70' 2.5 (DRC-1): -2.57%
% inhibition T4 70' 5 (DRC-1): -4%
% inhibition T4 70' 10 (DRC-1): -2%
% inhibition T4 70' 20 (DRC-1): -2.24%
% inhibition T4 70' 40 (DRC-1): -0.925%
% inhibition T4 70' 80 (DRC-1): 28%
% inhibition T4 130' 2.5 (DRC-1): -4%
% inhibition T4 130' 5 (DRC-1): -4%
% inhibition T4 130' 10 (DRC-1): -2.33%
% inhibition T4 130' 20 (DRC-1): -2.59%
% inhibition T4 130' 40 (DRC-1): 0.922%
% inhibition T4 130' 80 (DRC-1): 22%
% inhibition T4 10' 2.5 (DRC-2): 0.487%
% inhibition T4 10' 5 (DRC-2): -4%
% inhibition T4 10' 10 (DRC-2): -3%
% inhibition T4 10' 20 (DRC-2): 1.3%
% inhibition T4 10' 40 (DRC-2): 3.35%
% inhibition T4 10' 80 (DRC-2): 11%
% inhibition T4 40' 2.5 (DRC-2): -0.945%
% inhibition T4 40' 5 (DRC-2): -3.75%
% inhibition T4 40' 10 (DRC-2): -3%
% inhibition T4 40' 20 (DRC-2): 0.863%
% inhibition T4 40' 40 (DRC-2): 3.24%
% inhibition T4 40' 80 (DRC-2): 12%
% inhibition T4 90' 2.5 (DRC-2): -0.872%
% inhibition T4 90' 5 (DRC-2): -3.55%
% inhibition T4 90' 10 (DRC-2): -2.12%
% inhibition T4 90' 20 (DRC-2): 0.601%
% inhibition T4 90' 40 (DRC-2): 1.62%
% inhibition T4 90' 80 (DRC-2): 10%
% inhibition T4 180' 2.5 (DRC-2): -4.68%
% inhibition T4 180' 5 (DRC-2): -7.58%
% inhibition T4 180' 10 (DRC-2): -5%
% inhibition T4 180' 20 (DRC-2): -3.78%
% inhibition T4 180' 40 (DRC-2): -2.41%
% inhibition T4 180' 80 (DRC-2): 6%

Reference: publication PMC9090415, “Discovery of small molecule inhibitors of Plasmodium falciparum apicoplast DNA polymerase” (Journal of Enzyme Inhibition and Medicinal Chemistry, 2022)
